Entries after “also recorded” stand apart in the source; their conditions may differ. Read-outs that look alike come from different tables or passages of the source.
How the values were obtained:
[1] = test system: Toxoplasma gondii; conditions: mice infected with Toxoplasma gondii; cited from earlier work
[2] = target: RNA hypermethylase TGS1 (Homo sapiens, UniProt Q96RS0); conditions: Yedavalli & Jeang 2010; cited from earlier work
[3] = test system: HeLa PARN KO cells; test: qRT-PCR analysis of hTR levels in HeLa PARN KO cells; assay type: cell-based, human; conditions: 50 μM Sinefungin, 10 days
Protocol: (A, E) qRT-PCR analysis of levels of hTR on RNA of UMUC3 cells (A) or of the cell line HeLa PARN KO (E), treated or not with 50 μM Sinefungin for 10 days. The bars represent the variation in the levels of hTR in the treated cells and in the not treated cells, obtained by three replicates. The effects of Sinefungin were tested on mutant HeLa cells for PARN deadenylase (PARN KO) enzyme, one of the causative factors of congenital dyskeratosis (Tummala et al., 2015) (Roake C. M. et al. Mol cell 74, 2019). PARN KO cells, obtained in the laboratory of […] (Stanford University), are characterized by short telomeres, due to the reduced levels of RNA component of telomerase.

[4] = test system: UMUC3 cells; test: qRT-PCR analysis of hTR levels in UMUC3 cells; assay type: cell-based, human; conditions: Sinefungin 100 μM for 10 days
Protocol: (A, E) qRT-PCR analysis of levels of hTR on RNA of UMUC3 cells (A) or of the cell line HeLa PARN KO (E), treated or not with 50 μM Sinefungin for 10 days. The bars represent the variation in the levels of hTR in the treated cells and in the not treated cells, obtained by three replicates. The effects of Sinefungin were tested on the tumour cell line of UMUC3 bladder, characterized by limiting levels of hTR for the activity telomerase and by short telomeres (Xu L. & Blackburn E. H. Mol Cell 28, 2007). The UMUC3 cells were treated with Sinefungin 100 μM for 10 days, and then the levels of RNA hTR were determined. […] In order to confirm that Sinefungin is capable of striking specifically the TGS1 enzyme, a treatment with Sinefungin was tested on clones of UMUC3 cells, characterized by CRISPR-induced mutations in TGS1 (Chen et al.) (FIG. 3C), inside thereof there is a lengthening of the telomeres over time due to a deficiency of TGS1 (FIG. 3D). Control cells and mutant cells were cultivated for 46 days in presence or absence of Sinefungin.

[5] = test system: Leishmania; conditions: cited from earlier work
[6] = test system: HeLa PARN KO cells; test: Telomere Restriction Fragment (TRF) analysis in HeLa PARN KO cells; assay type: cell-based, human; conditions: 50 μM Sinefungin, 46 days
Protocol: (B,D,F) Determination of the telomeric length by means of Telomere Restriction Fragment analysis (TRF, performed according to the methods described in Roake, C. M. et al. Mol Cell 74, 2019) in two cell types characterized by short telomeres: the UMUC3 tumour cell line and the HeLa cells lacking in TGS1 or deadenylase PARN. (F) HeLa PARN KO cells were treated or not with 50 μM of Sinefungin for the period of time indicated in culture. Due to the reduced levels of RNA component of telomerase, the average telomeric length is shorter in the PARN KO cells (lane 13) rather than in the parental HeLa cell line. (4.5 kb vs 7.5 kb). […] The effects of Sinefungin were tested on mutant HeLa cells for PARN deadenylase (PARN KO) enzyme, one of the causative factors of congenital dyskeratosis (Tummala et al., 2015) (Roake C. M. et al. Mol cell 74, 2019). PARN KO cells, obtained in the laboratory of […] (Stanford University), are characterized by short telomeres, due to the reduced levels of RNA component of telomerase.

[7] = target: T1, recombinant TGS1 enzyme fused to protein GST (Homo sapiens, UniProt Q96RS0); test: In vitro hypermethylation assay with recombinant GST-TGS1 enzyme; assay type: biochemical; conditions: Sinefungin 100 μM; 50 μM [3H-CH3]AdoMet; 5 mM m7GTP
T1 construct: made in house; host or cells: bacterial cells
T1 sequence (Q96RS0 whole entry, the tested form may be a part): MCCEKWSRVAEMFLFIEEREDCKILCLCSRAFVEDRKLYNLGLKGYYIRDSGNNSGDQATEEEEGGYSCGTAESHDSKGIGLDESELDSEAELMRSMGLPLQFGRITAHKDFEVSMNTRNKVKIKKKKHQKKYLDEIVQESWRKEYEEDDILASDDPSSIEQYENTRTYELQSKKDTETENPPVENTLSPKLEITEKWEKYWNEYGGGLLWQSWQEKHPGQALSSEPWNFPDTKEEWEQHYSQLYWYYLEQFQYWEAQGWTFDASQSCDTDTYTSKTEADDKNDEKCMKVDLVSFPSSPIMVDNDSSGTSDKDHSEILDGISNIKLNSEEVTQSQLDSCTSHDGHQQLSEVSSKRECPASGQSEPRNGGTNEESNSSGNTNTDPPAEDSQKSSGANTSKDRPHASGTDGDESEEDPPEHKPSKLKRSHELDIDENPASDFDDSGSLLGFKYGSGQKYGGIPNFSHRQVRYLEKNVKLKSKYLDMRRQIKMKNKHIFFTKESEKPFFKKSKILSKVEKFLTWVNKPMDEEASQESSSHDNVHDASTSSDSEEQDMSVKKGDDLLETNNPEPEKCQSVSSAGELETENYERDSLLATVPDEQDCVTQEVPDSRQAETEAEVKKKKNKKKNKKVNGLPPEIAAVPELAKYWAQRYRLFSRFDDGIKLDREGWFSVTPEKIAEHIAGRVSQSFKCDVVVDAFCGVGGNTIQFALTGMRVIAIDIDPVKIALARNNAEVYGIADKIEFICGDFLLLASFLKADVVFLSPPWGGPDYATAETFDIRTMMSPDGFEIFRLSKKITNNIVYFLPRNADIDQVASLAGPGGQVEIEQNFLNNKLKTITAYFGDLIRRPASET
Protocol: Sinefungin, analogous of S-adenosyl-methionine, inhibits the reaction of hypermethylation catalyzed by TGS1. (A) In vitro assay of hypermethylation performed by incubating 1 μg of recombinant GST-TGS1 or GST with 50 μM [^3H—CH3]AdoMet (SAM) and with 5 mM m^7GTP (MMG), in presence or not of 100 μM Sinefungin. Aliquots of the reaction mixture are placed on cellulose-polyethyleneimine and the reaction products are resolved by means of TLC. The incorporation of ^3H—CHs in the methylated derivatives of MMg (DMG or TMG) is quantified by means of liquid scintillation counting. (B) Control reactions performed without protein or GST. (C) The entity of transfer of ^3H-methyl to the dinucleotide cap is shown. The Sinefungin capability of inhibiting the methyl-transferase activity of TGS1 enzyme was evaluated by means of recombinant in vitro hypermethylation assay by using recombinant TGS1 enzyme fused to protein GST. After having purified TGS1-GST from bacterial cells, still immobilized on glutathione beads, or GST alone, the assay was performed in presence or absence of Sinefungin, by using [^3H—CH3]AdoMet as methyl donor and m^7GTP (MMG) as substrate.

[8] = test system: UMUC3 cells; test: Telomere Restriction Fragment (TRF) analysis in TGS1-proficient UMUC3 cells; assay type: cell-based, human; conditions: TGS1-proficient UMUC3 cells cultivated with Sinefungin, over 15 population doublings / 46 days
Protocol: (B,D,F) Determination of the telomeric length by means of Telomere Restriction Fragment analysis (TRF, performed according to the methods described in Roake, C. M. et al. Mol Cell 74, 2019) in two cell types characterized by short telomeres: the UMUC3 tumour cell line and the HeLa cells lacking in TGS1 or deadenylase PARN. […] No lengthening of telomeres in the not-treated parental cells is observed (lanes 9-10). The effects of Sinefungin were tested on the tumour cell line of UMUC3 bladder, characterized by limiting levels of hTR for the activity telomerase and by short telomeres (Xu L. & Blackburn E. H. Mol Cell 28, 2007). The UMUC3 cells were treated with Sinefungin 100 μM for 10 days, and then the levels of RNA hTR were determined. […] In order to confirm that Sinefungin is capable of striking specifically the TGS1 enzyme, a treatment with Sinefungin was tested on clones of UMUC3 cells, characterized by CRISPR-induced mutations in TGS1 (Chen et al.) (FIG. 3C), inside thereof there is a lengthening of the telomeres over time due to a deficiency of TGS1 (FIG. 3D). Control cells and mutant cells were cultivated for 46 days in presence or absence of Sinefungin.

[9] = target: T2, SET7/9 lysine methyltransferase (Mus musculus, UniProt Q8VHL1); conditions: murine model for renal fibrosis; cited from earlier work
T2 construct: host or cells: murine model of renal fibrosis
T2 sequence (Q8VHL1 1-366): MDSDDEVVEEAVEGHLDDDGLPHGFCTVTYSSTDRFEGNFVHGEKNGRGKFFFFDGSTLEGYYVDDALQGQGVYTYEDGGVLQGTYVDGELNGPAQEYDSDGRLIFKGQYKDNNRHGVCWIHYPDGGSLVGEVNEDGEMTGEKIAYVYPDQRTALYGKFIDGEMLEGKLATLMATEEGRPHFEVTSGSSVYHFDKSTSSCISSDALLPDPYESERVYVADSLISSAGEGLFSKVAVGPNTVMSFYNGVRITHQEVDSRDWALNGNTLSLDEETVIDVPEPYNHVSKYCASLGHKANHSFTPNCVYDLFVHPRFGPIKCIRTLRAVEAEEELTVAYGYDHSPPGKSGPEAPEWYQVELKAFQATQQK

[10] = high doses, goats; cited from earlier work
[11] = high doses, dogs; cited from earlier work
[12] = test system: fungal cap methyltransferase enzyme; conditions: Chrebet et al. 2005; cited from earlier work

RNA hypermethylase TGS1, sequence (Q96RS0 whole entry): as the sequence (Q96RS0 whole entry, the tested form may be a part) above

## Sinefungin
[1]
  survival of infected mice: increased the survival of mice
[2]
  inhibition of TGS1 in human cells: inhibits RNA hypermethylase TGS1
[3]
  levels of hTR: a significative increase in the levels of hTR
[4]
  increase in the levels of hTR: 1.5 times
[5]; mice infected with various isolates of Leishmania
  survival of infected mice: increased the survival of mice
[5]; mouse, in vivo
  toxic effects in infected mice: without showing clinically detectable toxic effects
[6]
  telomere length (TRF): a lengthening of telomeres; also recorded: a substantial increase in the telomere length
[7]
  methyl-transferase activity of TGS1 (3H-methyl transfer to m7GTP, TLC / liquid scintillation): inhibit the methyl-transferase activity of TGS1
[8]
  telomere length (TRF): A lengthening of telomeres takes place in the treated control cells; also recorded: a lengthening of the telomeres was observed
[9]
  renal fibrosis pathology: an improvement in the pathology
[10]
  nephrotoxicity: nephrotoxic effects were detected
[11]
  nephrotoxicity: nephrotoxic effects were detected
[12]
  inhibition of fungal cap methyltransferase with respect to the human ortholog: ten times more effectively
